# PubChem BioAssay AID394
# Molecular target: Tyrosine-protein phosphatase non-receptor type 14 (Homo sapiens) (UniProt Q15678)
# Assay: compound-induced PTPN14 thermal stabilization – biophysical, human, DSF, SYPRO orange (AID 394)
# Details: recombinant PTPN14, DSF thermal shift, at 10 µM, protein 2 µM, buffer 10 mM HEPES, pH 7.5, NaCl 150 mM, stronger effect = higher value
# Sequence of Tyrosine-protein phosphatase non-receptor type 14 (Homo sapiens) (Q15678 whole entry, looked up): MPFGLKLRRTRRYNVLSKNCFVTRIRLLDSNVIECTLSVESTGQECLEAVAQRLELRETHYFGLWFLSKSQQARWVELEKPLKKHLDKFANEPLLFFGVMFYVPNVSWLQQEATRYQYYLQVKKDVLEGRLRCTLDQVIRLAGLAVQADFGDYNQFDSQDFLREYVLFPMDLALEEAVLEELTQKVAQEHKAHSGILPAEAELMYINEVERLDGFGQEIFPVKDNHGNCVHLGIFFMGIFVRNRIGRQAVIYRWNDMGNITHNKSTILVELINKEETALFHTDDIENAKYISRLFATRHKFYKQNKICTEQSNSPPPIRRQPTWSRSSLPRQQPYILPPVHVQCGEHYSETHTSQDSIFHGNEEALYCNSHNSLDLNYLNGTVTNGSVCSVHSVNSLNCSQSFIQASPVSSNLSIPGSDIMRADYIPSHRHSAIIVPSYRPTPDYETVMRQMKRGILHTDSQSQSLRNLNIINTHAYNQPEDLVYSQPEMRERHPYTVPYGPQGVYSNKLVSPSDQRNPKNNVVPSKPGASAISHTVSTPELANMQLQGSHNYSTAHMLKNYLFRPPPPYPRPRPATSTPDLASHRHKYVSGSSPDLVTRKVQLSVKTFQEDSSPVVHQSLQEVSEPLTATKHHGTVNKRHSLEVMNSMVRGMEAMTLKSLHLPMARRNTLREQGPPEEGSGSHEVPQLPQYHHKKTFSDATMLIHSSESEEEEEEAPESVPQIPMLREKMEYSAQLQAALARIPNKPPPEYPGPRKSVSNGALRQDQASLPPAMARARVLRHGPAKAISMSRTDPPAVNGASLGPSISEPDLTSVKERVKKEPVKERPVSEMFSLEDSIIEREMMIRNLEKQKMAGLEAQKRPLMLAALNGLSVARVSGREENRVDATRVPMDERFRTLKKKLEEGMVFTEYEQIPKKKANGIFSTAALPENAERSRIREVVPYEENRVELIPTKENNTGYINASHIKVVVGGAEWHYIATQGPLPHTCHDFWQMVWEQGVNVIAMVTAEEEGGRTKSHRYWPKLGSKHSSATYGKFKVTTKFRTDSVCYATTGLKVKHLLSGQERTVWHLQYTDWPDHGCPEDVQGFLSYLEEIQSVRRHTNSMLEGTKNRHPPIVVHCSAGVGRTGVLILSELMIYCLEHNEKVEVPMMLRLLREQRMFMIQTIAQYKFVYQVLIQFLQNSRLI
Structure (SMILES),"Tm shift (DTT 2000 µM, with dithiothreitol)",Tm shift
O=C([O-])c1ccccn1.OO.OO.[K+].[K+].[O]=[V],2.3 Celsius,
O=C(O)c1ccc([O-])cn1.OO.OO.[K+].[K+].[O]=[V],,4.45 Celsius
OO.OO.[K+].[O]=[V].c1cnc2c(c1)ccc1cccnc12,,5.88 Celsius
O=C(O)c1ccc(O)cn1.OO.[O]=[V],,5.95 Celsius
OO.OO.[K+].[O]=[V].c1ccc(-c2ccccn2)nc1,,4.81 Celsius
